# Test results from US20090054527A1, “Administration of capsaicinoids” (AlgoRx, priority 2002, published 2009).
# “And” between values parts separate entries of the source, which are not always exact repeats. Equal values may be shown once. Read-outs that look alike come from different tables or passages of the source.
# Legend:
# [1] = tested on: inflammatory and neuropathic pain; conditions: formalin test and spinal nerve ligation; cited from earlier work
# [2] = human, in vivo; cited from earlier work
# clinical = assay: clinical; design: species or system human; conditions: in vivo
# Experimental: The pharmacokinetic parameters of Cmax, Tmax, AUC(0−tlast) and t½ were evaluated.
# [3] = tested on: subjects with osteoarthritis of the knee; assay: Osteoarthritis of the knee efficacy study (Phase 2): NRS pain score; assay type: in vivo, human; conditions: 1000 μg intra-articular, three weeks following administration, P=0.03
# Experimental: The study is designed to include 12 evaluation subjects (Patients suffering a defined pain: >40 mm on VAS). […] Patients are treated randomly and in double-blind fashion. Gross and microscopic pathology analysis are completed for each treatment group. Each subject has 3 study visits: a Screening Day (Day −7 to −1), the Treatment Day (Day 0), and a Post-Treatment Day (scheduled for Day +2, +4, +7, or +14). On the Treatment Day the subject is randomized, pre-treatment evaluation is performed. The patient is brought into the procedure room, and a VAS pain score is taken (0 mm—no pain, 100 mm—extreme pain). Once the patient marks his or her pain on the card, he/she is prepped for knee cannulation. Once the cannula is placed, the patient receives, by intra-articular infiltration, 3 mg/kg (maximum dose of 200 mg) of 2% lignocaine into the knee scheduled to be replaced.
# VAS pain scores as well as verbal reports are taken immediately following administration, as well as prior to knee replacement surgery. On the Post-Treatment Day, a study evaluation is performed followed by the scheduled knee replacement, with intra-operative bone and soft tissue biopsies performed for subsequent examination. […]
# Changes in NRS (Numerical Rating Scale) pain scores were measured at three weeks following administration.
# [4] = cited from earlier work
# [5] = tested on: subjects with osteoarthritis of the knee; assay: Osteoarthritis of the knee safety study (Phase 1): intra-articular purified capsaicin after lignocaine; safety, tolerability, VAS pain; assay type: in vivo, human
# Experimental: The primary objective of the study was to evaluate the safety and tolerability of intra-articular capsaicin, when co-administered with intra-articular local anesthetic, compared to placebo, in subjects with end-stage osteoarthritis of the knee, already scheduled to receive knee replacements.
# The study was designed to include 16 evaluation subjects. […] Sixteen subjects completed the study.
# Patients were treated randomly and in double-blind fashion in four treatment groups, with each group having a progressively longer interval between the intra-articular administration of study medication and subsequent total knee replacement (2, 4, 7, and 14 days). […] Gross and microscopic pathology analysis was completed for each treatment group before the next treatment group was treated.
# Each subject had 3 study visits: a Screening Day (Day −7 to −1), the Treatment Day (Day 0), and a Post-Treatment Day (scheduled for Day +2, +4, +7, or +14). On the Treatment Day the subject was randomized, pre-treatment evaluation was performed. The patients were brought into the procedure room, and a VAS pain score was taken (0 mm—no pain, 100 mm—extreme pain). Once the patient had marked his or her pain on the card, he/she was prepped for knee cannulation. Once the cannula was placed, the patient received by intra-articular infiltration, 3 mg/kg (maximum dose of 200 mg) of 2% lignocaine into the knee scheduled to be replaced.
# VAS pain scores as well as verbal reports were taken immediately following administration, as well as prior to knee replacement surgery. No subjects discontinued from the study due to adverse events.
# On the Post-Treatment Day, study evaluation was performed followed by the scheduled knee replacement, with intra-operative bone and soft tissue biopsies performed for subsequent examination. […] This therefore left the 3 placebo and 9 active patients from the 4 day, 7 day, and 14 day cohorts.
# [6] = tested on: radiation induced hyperalgesia; conditions: systemic, cited from earlier work
# [7] = tested on: subjects undergoing transpositional osteotomy (bunionectomy); assay: Bunionectomy efficacy study (Phase II): capsaicin dripped into the wound before closure; VAS pain and rescue medication; assay type: in vivo, human; conditions: for VAS pain score at the operation site (mean +/− SEM): 1000 μg, n = 11
# Experimental: The primary efficacy endpoint was the proportion of subjects in each treatment group requiring opioid analgesia in the first 24 hours post-operatively. The proportions were compared amongst treatment groups using the Cochran-Haenszel test. Secondary efficacy end points included: i) proportion of subjects in each treatment group requiring opioid analgesia in the first 36 hour period post-operatively (Similarly, the proportions were compared amongst treatment groups using the Cochran-Haenszel test); ii) proportion of subjects in each treatment group requiring opioid analgesia in the 10 day period post-operatively (Similarly, the proportions were compared amongst treatment groups using the Cochran-Haenszel test); iii) time to first usage of opioid analgesia in each treatment group (a survival analysis approach will be used: the product-limit (Kaplan-Meier) method will be applied to time to first usage of opioid analgesia. The median time to first usage of opioid analgesia will be estimated in both treatment groups. Pairwise comparisons will be performed to test for equality of the survival curves between the 2 treatment groups using both the log-rank and the Wilcoxon test); iv) total usage of analgesia in each treatment group (the total usage of analgesia will be compared by an analysis of variance with treatment and center as independent variables. A pairwise comparison will be performed between the treatment groups); and v) VAS assessment of pain at the site of operation in each treatment group (The VAS score at each time point will be compared by an analysis of variance with treatment and center as independent variables. A pairwise comparison will be performed between the treatment groups). […] The efficacy analysis was performed on the data obtained ten days postoperatively. The safety analysis was performed based on the safety data for the entire study, including the 6 week and 12 week follow-up periods. The blind was broken at the time the efficacy analysis was performed. However, the individual treatment assignment was available to the statistical analysis group only. All other personnel involved in the study, including the Investigator, study monitor and proprietary staff, remained blinded until the entire study was completed.
# The study was designed to include 40 evaluation subjects. […] Each subject had six (6) study visits: a Screening Day (Day −28 to −1), an Operation Day (Day 0), and four (4) Follow-up visits (scheduled for Days 3, 10 and weeks 6 and 12).
# On Operation Day (Day 0) the following was performed: a) Pre-operation: Prior to the initiation of an ankle block, inclusion/exclusion criteria assessment was performed. […] Immediately prior to wound closure, the Investigator slowly dripped the study medication (4 mL) from a syringe into the wound, ensuring even tissue exposure. The wound was then be closed according to normal practices and procedures.
# In the 24 hours following administration of study medication, vital signs (supine pulse rate and blood pressure) were recorded at 1, 2, 4 and 24 hours post administration. VAS assessment of pain at the operation site was performed at 1, 4, 8, 12 and 24 hours post administration. In those instances where VAS measurements coincide with blood sampling procedures, the VAS assessment was performed first. […] The quantity of each blood sample was 10 mL. Laboratory safety assessments, e.g., haematology, biochemistry, urinalysis were performed at 24 hours post administration. Adverse events were spontaneously reported by the subject and recorded. Rescue analgesia medication was provided to the subject if required (initially diclofenac 50 mg, repeated at 8 hourly intervals if necessary). When diclofenac was judged by the Investigator to provide inadequate pain relief then the subject was provided with alfentanil 1 mg, repeated at 6 hourly intervals, if necessary.
compound,measurement,setting,value
CN(C)CCC=C1c2ccccc2CCc2ccccc21 [amitriptyline],action when administered locally,[1],produced local antinociceptive actions
CNCCCN1c2ccccc2CCc2ccccc21 [desipramine],action when administered locally,[1],produced local antinociceptive actions
CN1C(C(=O)Nc2ccccn2)=C(O)c2ccccc2S1(=O)=O [piroxicam],patients experiencing gross bleeding and ulceration,[2],up to 4%
"COc1cc(CNC(=O)CCCC/C=C/C(C)C)ccc1O [purified capsaicin, N-(4-hydroxy-3-methoxybenzyl)-8-methylnon-trans-6-enamide]",Tmax,"clinical; human, 300 ug",30 min
same,half-life,"clinical; human, 300 ug, terminal exponential half life, per subject",19.6 min
same,plasma concentrations compared with the 100 μg and 300 μg dose groups,clinical,clearly lower
same,final NRS (Numerical Rating Scale) pain score,[3],3.97
same,"solubility in alcohol, ether, benzene and chloroform",[4],freely soluble
same,solubility in water,[4],practically insoluble
same,incidence of post injection hyperalgesia,[5]; 10 μg dose group,no subjects
same,patients reporting transient burning pain immediately following instillation,[5]; 10 μg intra-articular,0 of 4
same,"duration of post-administration (hyper)algesic pain, per subject",[5]; 100 μg dose group,9 min
same,incidence of post injection hyperalgesia,[5]; 100 μg dose group,1 subject
same,subjects requiring intervention for post-injection (hyper)algesia,[5]; 100 μg dose group,1 subject
same,patients reporting transient burning pain immediately following instillation,[5]; 100 μg intra-articular,1 of 4
same,"duration of post-administration (hyper)algesic pain, per subject",[5]; 300 μg dose group,17 minutes and 25 minutes (2×) and 42 minutes
same,incidence of post injection hyperalgesia,[5]; 300 μg dose group,4 subjects
same,subjects requiring intervention for post-injection (hyper)algesia,[5]; 300 μg dose group,4 subjects
same,patients reporting transient burning pain immediately following instillation,[5]; 300 μg intra-articular,4 of 4
same,"reduction of VAS pain score, before administration vs day of surgery","[5]; 9 active patients of the 4, 7 and 14 day cohorts, doses 10-300 μg pooled",62±14%
same,effects on laboratory safety parameters or vital signs,[5]; 10-300 μg intra-articular,no treatment related effects
same,"effects on soft tissue, cartilage or bone upon histopathological examination",[5]; 10-300 μg intra-articular,no treatment related effects
same,"erythema, edema or hemorrhage at the site of injection",[5]; 10-300 μg intra-articular,no treatment related signs
same,gross and microscopic pathology,[5]; 10-300 μg intra-articular,normal
same,leakage of study drug from the joint space,[5]; 10-300 μg intra-articular,low leakage
same,systemic side effects,[5]; 10-300 μg intra-articular,No treatment related systemic side effects
same,"median decrease from baseline to pre-operative time point in VAS for pain at the target knee, vs placebo",[5]; all 3 capsaicin dose groups,substantially greater
same,tolerability,"[5]; all dose levels (10, 100, 300 μg)",well tolerated
same,onset of post-administration (hyper)algesia after administration,"[5]; all episodes, 100 and 300 μg",≤ 5 min
same,effect on proprioception at the injected knee,"[5]; any dose group, any time point",no discernable effect
same,indication of efficacy on VAS pain,"[5]; any of the dose levels (10, 100, 300 μg)",No clear treatment related indication of efficacy
same,effect on radiation induced hyperalgesia,"[6]; final doses of 25 mg/kg or less, prior to ultra violet radiation",prevented radiation induced hyperalgesia
same,effect on pain threshold,[6]; final doses of 25 mg/kg or less,did not elevate the pain threshold above normal range
same,effect on pain threshold,[6]; final doses of 50 mg/kg or greater,pain threshold elevated
same,"time at which a subject required rescue, per subject",[7]; 1000 μg prior to wound closure,1 h and 4 h and 5 h and 8 h and 12 h
same,study subjects requiring rescue,"[7]; 1000 μg prior to wound closure, 72 hours, n=11",45%
same,subjects that did not rescue in 72 hours,"[7]; 1000 μg prior to wound closure, n=11",6 subjects
same,VAS pain score at the operation site (mean +/− SEM),[7]; 1 hr,11.1 +/− 7.3
same,VAS pain score at the operation site (mean +/− SEM),[7]; 8 hr,5.5 +/− 2.3
same,VAS pain score at the operation site (mean +/− SEM),[7]; 12 hr,8.2 +/− 3.8
same,VAS pain score at the operation site (mean +/− SEM),[7]; 24 hr,1.9 +/− 1.0
same,VAS pain score at the operation site (mean +/− SEM),[7]; 48 hr,5.9 +/− 2.5
same,VAS pain score at the operation site (mean +/− SEM),[7]; 72 hr,10.6 +/− 3.5
